Read-outs that look alike come from different tables or passages of the source.
System: α7 integrin promoter
Assay: muscle cell-based assay: α7βgal+/− myoblasts/myotubes, LacZ reporter, β-galactosidase cleavage of FDG
Set-up: species or system mouse; Results in α7+/− β-galactosidase assay: scale not given here
Conditions: for Results in α7+/− β-galactosidase assay: Myoblasts; for Results in a α7+/− β-galactosidase assay, Myotubes, 0.5 uM: compound at 0.5 uM; for Results in a α7+/− β-galactosidase assay, Myotubes, 1 uM: compound at 1 uM; for Results in a α7+/− β-galactosidase assay, Myotubes, 5 uM: compound at 5 uM; for Results in a α7+/− β-galactosidase assay, Myotubes, 10 uM: compound at 10 uM; for Results in a α7+/− β-galactosidase assay, Myotubes, 20 uM: compound at 20 uM; for Results in a α7+/− β-galactosidase assay, Myotubes, 40 uM: compound at 40 uM; for EC50 / AC50 / Emax: Mus musculus; for EC50: read-out: Fit LogAC50 (converted); for AC50: log of AC50, given with negative sign, unit of AC50 not given, read-out: Fit Log AC50 (converted); for Emax: read-out: Max Response [%]
Summary of the method: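 Primary α7βgal+/− mouse myoblasts (LacZ knocked into α7 integrin exon 1, promoter retained), differentiated; promoter activity read as β-galactosidase conversion of non-fluorescent FDG to fluorescein. Hits followed by dose-response, western analysis and myostatin counterscreen.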

[1] = given as log AC50 (negative values)
[2] = curve class number, key not given
[3] = curve fit, activity at zero concentration
[4] = Table 12, fitted activity at zero concentration
[5] = Table 12 Compound data, concentration-response curve fit

Structure (SMILES): CCC(C)C(CC)NC(=O)CSc1nnc(COc2ccc(Cl)cc2)o1 (stereo not drawn) [drawing 582]
- Results in α7+/− β-galactosidase assay (0.5 uM): 0.3279
- Results in α7+/− β-galactosidase assay (1 uM): 0.05348
- Results in α7+/− β-galactosidase assay (5 uM): 0.1357
- Results in α7+/− β-galactosidase assay (10 uM): −0.1014
- Results in α7+/− β-galactosidase assay (20 uM): −0.1787
- Results in α7+/− β-galactosidase assay (40 uM): −0.4133

Structure (SMILES): CCCCNc1nnc(Cc2ccc(Cl)cc2)c(O)n1 [drawing 335]
- Results in a α7+/− β-galactosidase assay, Myotubes, 0.5 uM: 0.2647
- Results in a α7+/− β-galactosidase assay, Myotubes, 1 uM: 0.1668
- Results in a α7+/− β-galactosidase assay, Myotubes, 5 uM: −0.1354
- Results in a α7+/− β-galactosidase assay, Myotubes, 10 uM: −0.08652
- Results in a α7+/− β-galactosidase assay, Myotubes, 20 uM: −0.07223
- Results in a α7+/− β-galactosidase assay, Myotubes, 40 uM: −0.1

Structure (SMILES): COC(=O)c1ccc(/N=N/c2ccccc2)cc1 [drawing 613]
- Results in α7+/− β-galactosidase assay (0.5 uM): 0.1047
- Results in α7+/− β-galactosidase assay (1 uM): 0.17
- Results in α7+/− β-galactosidase assay (5 uM): −0.07402
- Results in α7+/− β-galactosidase assay (10 uM): −0.1217
- Results in α7+/− β-galactosidase assay (20 uM): −0.1237
- Results in α7+/− β-galactosidase assay (40 uM): −0.2361

Structure (SMILES): Fc1ccc(-c2ccnc3nc(N4CCN(c5ccccc5)CC4)nn23)cc1 [drawing 649]
- Results in α7+/− β-galactosidase assay (0.5 uM): 0.1594
- Results in α7+/− β-galactosidase assay (1 uM): 0.2225
- Results in α7+/− β-galactosidase assay (5 uM): 0.1641
- Results in α7+/− β-galactosidase assay (10 uM): 0.1229
- Results in α7+/− β-galactosidase assay (20 uM): 0.02594
- Results in α7+/− β-galactosidase assay (40 uM): 0.02675

Structure (SMILES): O=C(NCCCn1ccnc1)/C(=C/c1cccs1)NC(=O)c1ccco1 [Compound 124]
- EC50 [1]: 8.91 µM
- Score (Table 12 compound data): 43
- Fit Curve Class [2]: 2.1
- Fit HillSlope (curve fit): 1.2475
- Fit Zero Activity [%] [3]: −20.4393%

Structure (SMILES): CC(C)Oc1ccc(C(=O)/C=C2\C(=O)Nc3ccccc32)cc1 [drawing 531]
- Results in α7+/− β-galactosidase assay (0.5 uM): 0.3276
- Results in α7+/− β-galactosidase assay (1 uM): 0.2225
- Results in α7+/− β-galactosidase assay (5 uM): −0.3766
- Results in α7+/− β-galactosidase assay (10 uM): −0.6765
- Results in α7+/− β-galactosidase assay (20 uM): −0.7978
- Results in α7+/− β-galactosidase assay (40 uM): −0.9731

Structure (SMILES): COc1cccc(CN2CCN(Cc3ccco3)CC2)c1.O=C(O)C(=O)O [drawing 530]
- Results in α7+/− β-galactosidase assay (0.5 uM): 0.2392
- Results in α7+/− β-galactosidase assay (1 uM): 0.1359
- Results in α7+/− β-galactosidase assay (5 uM): 0.06492
- Results in α7+/− β-galactosidase assay (10 uM): −0.03174
- Results in α7+/− β-galactosidase assay (20 uM): 0.218
- Results in α7+/− β-galactosidase assay (40 uM): 0.2155

Structure (SMILES): O=[N+]([O-])c1ccc(N2CCN(c3ccccc3F)CC2)nc1 [Compound 49]
- AC50 (Table 12): 5.62 µM
- Emax: 151%
- Fit HillSlope (Table 12, curve fit): 1.9282
- Fit Zero Activity [%] [4]: 2.973%
- Fit Curve Class (Table 12, key not given): 2.1
- Score [5]: 46

Structure (SMILES): CCNC(=O)COC(=O)c1cc(-c2ccco2)nc2ccccc12 [Compound 175]
- EC50 [1]: 5.62 µM
- Score (Table 12 compound data): 42
- Fit Curve Class [2]: 2.1
- Fit HillSlope (curve fit): 1.3443
- Fit Zero Activity [%] [3]: −62.687%

Structure (SMILES): Cc1cc(OCC(=O)NC(C)C)ccc1Cl [drawing 472]
- Results in a α7+/− β-galactosidase assay, Myotubes, 0.5 uM: −0.02692
- Results in a α7+/− β-galactosidase assay, Myotubes, 1 uM: −0.04637
- Results in a α7+/− β-galactosidase assay, Myotubes, 5 uM: −0.3868
- Results in a α7+/− β-galactosidase assay, Myotubes, 10 uM: −0.4196
- Results in a α7+/− β-galactosidase assay, Myotubes, 20 uM: −0.2513
- Results in a α7+/− β-galactosidase assay, Myotubes, 40 uM: −0.2531

Structure (SMILES): CN(/C(=N/S(=O)(=O)c1cccs1)c1ccccc1)c1ccccc1 [drawing 589]
- Results in α7+/− β-galactosidase assay (0.5 uM): 0.2361
- Results in α7+/− β-galactosidase assay (1 uM): −0.03677
- Results in α7+/− β-galactosidase assay (5 uM): −0.05696
- Results in α7+/− β-galactosidase assay (10 uM): −0.01934
- Results in α7+/− β-galactosidase assay (20 uM): −0.0583
- Results in α7+/− β-galactosidase assay (40 uM): −0.2263

Structure (SMILES): COCc1c(C(=O)N/N=C(\C)c2ccc(OCc3ccccc3)cc2)nnn1-c1nonc1N [Compound 143]
- EC50 [1]: 10 µM
- Score (Table 12 compound data): 42
- Fit Curve Class [2]: 2.1
- Fit HillSlope (curve fit): 4.4495
- Fit Zero Activity [%] [3]: 4.6719%

Structure (SMILES): Cc1ccc2c(c1)/C(=C/c1ccc(F)cc1)C(=O)N2 [drawing 525]
- Results in α7+/− β-galactosidase assay (0.5 uM): 0.006732
- Results in α7+/− β-galactosidase assay (1 uM): −0.03019
- Results in α7+/− β-galactosidase assay (5 uM): −0.1238
- Results in α7+/− β-galactosidase assay (10 uM): −0.2542
- Results in α7+/− β-galactosidase assay (20 uM): −0.5127
- Results in α7+/− β-galactosidase assay (40 uM): −0.7544

Structure (SMILES): Cc1ccccc1NC(=O)NCCCN1CCN(C)CC1 [drawing 329]
- Results in a α7+/− β-galactosidase assay, Myotubes, 0.5 uM: 0.0927
- Results in a α7+/− β-galactosidase assay, Myotubes, 1 uM: 0.04605
- Results in a α7+/− β-galactosidase assay, Myotubes, 5 uM: −0.02688
- Results in a α7+/− β-galactosidase assay, Myotubes, 10 uM: −0.00108
- Results in a α7+/− β-galactosidase assay, Myotubes, 20 uM: 0.01494
- Results in a α7+/− β-galactosidase assay, Myotubes, 40 uM: −0.02803

Structure (SMILES): CNP(=O)(Oc1ccccc1)OC12CC3CC(CC(C3)C1)C2 (stereo not drawn) [Compound 182]
- Fit Curve Class: 2.1
- Fit HillSlope: 2.2481
- Fit Zero Activity [%]: −0.8571%
- Score: 42
- EC50: 10 µM

Structure (SMILES): CCC(CC)C(=O)Nc1c(C(=O)N2CCN(c3ccccc3)CC2)oc2ccccc12 [drawing 687]
- Results in α7+/− β-galactosidase assay (0.5 uM): 0.02952
- Results in α7+/− β-galactosidase assay (1 uM): 0.08671
- Results in α7+/− β-galactosidase assay (5 uM): 0.02479
- Results in α7+/− β-galactosidase assay (10 uM): −0.0251
- Results in α7+/− β-galactosidase assay (20 uM): 0.2442
- Results in α7+/− β-galactosidase assay (40 uM): 0.3404

Structure (SMILES): COc1ccccc1NS(=O)(=O)c1cc(NC(=O)c2ccc(Cl)nc2)ccc1N1CCCC1 [drawing 566]
- Results in α7+/− β-galactosidase assay (0.5 uM): 0.1257
- Results in α7+/− β-galactosidase assay (1 uM): 0.1127
- Results in α7+/− β-galactosidase assay (5 uM): 0.06786
- Results in α7+/− β-galactosidase assay (10 uM): 0.0849
- Results in α7+/− β-galactosidase assay (20 uM): −0.1817
- Results in α7+/− β-galactosidase assay (40 uM): −0.2311

Structure (SMILES): Cc1cccc2c(/N=N/c3ccc(S(=O)(=O)Nc4ccc(Cl)cc4)cc3[N+](=O)[O-])c(O)[nH]c12 [drawing 605]
- Results in α7+/− β-galactosidase assay (0.5 uM): −0.02621
- Results in α7+/− β-galactosidase assay (1 uM): −0.05717
- Results in α7+/− β-galactosidase assay (5 uM): −0.2201
- Results in α7+/− β-galactosidase assay (10 uM): −0.3043
- Results in α7+/− β-galactosidase assay (20 uM): −0.4039
- Results in α7+/− β-galactosidase assay (40 uM): −0.5304

Structure (SMILES): CCOC(=O)C1=C(NC(=O)c2ccc(OC)c(S(=O)(=O)N3CCCCC3C)c2)Nc2ccccc2N=C1CC (stereo not drawn) [drawing 429]
- Results in a α7+/− β-galactosidase assay, Myotubes, 0.5 uM: −0.08852
- Results in a α7+/− β-galactosidase assay, Myotubes, 1 uM: 0.05126
- Results in a α7+/− β-galactosidase assay, Myotubes, 5 uM: −0.2482
- Results in a α7+/− β-galactosidase assay, Myotubes, 10 uM: −0.1853
- Results in a α7+/− β-galactosidase assay, Myotubes, 20 uM: −0.1051
- Results in a α7+/− β-galactosidase assay, Myotubes, 40 uM: −0.1944

Structure (SMILES): CN(C)CCNc1ncnc2sc(-c3ccccc3)cc12 [Compound 163]
- EC50 [1]: 10 µM
- Score (Table 12 compound data): 42
- Fit Curve Class [2]: 2.2
- Fit HillSlope (curve fit): 4.045
- Fit Zero Activity [%] [3]: −0.8551%

Structure (SMILES): Cc1cc(C(=O)Nc2cccc3ccccc23)c(C)o1 [Compound 153]
- EC50 [1]: 7.94 µM
- Score (Table 12 compound data): 42
- Fit Curve Class [2]: 2.1
- Fit HillSlope (curve fit): 1.5095
- Fit Zero Activity [%] [3]: −21.2671%

Structure (SMILES): CC(=O)Nc1ccc(N(C(=O)c2cnccn2)C(C(=O)NC2CCCCC2)c2ccc(F)cc2)cc1 (stereo not drawn) [Compound 44]
- AC50 (Table 12): 11.2 µM
- Emax: 308%
- Fit HillSlope (Table 12, curve fit): 4.095
- Fit Zero Activity [%] [4]: −17.6073%
- Fit Curve Class (Table 12, key not given): 2.1
- Score [5]: 47

Reference: US10028992B2, “Methods of treating muscular dystrophy” (BOARD OF REGENTS OF THE NEVADA SYSTEM OF HIGHER EDUCATION …, priority 2012, dated 2018)
